Measurements reported in patent US10167261B2, “2-oxo-3,4-dihydroquinolin-6-yl sulphonamide CPDS and their use as plant growth regulators” (THE REGENTS OF THE UNIVERSITY OF CALIFORNIA, priority 2014, dated 2019).
Read-outs that look alike come from different tables or passages of the source.

How the values were obtained:
[1] = test system: soybean plants (variety S20-G7); test: Water use (WU) of soybean plants after foliar spray; format: in vivo; conditions: for change in vivo at 100 µM / change in vivo at 500 µM: Glycine max, vs negative control; for change in vivo at 100 µM / Total 0 to 2 DAA / change in vivo at 500 µM: foliar spray; for Total 0 to 2 DAA: cumulative WU vs negative control; for Total % WU 0 to 2 DAA: cumulative
Method: Chemicals were tested for their effect on reducing plant water use (WU) after being applied by foliar sprays onto soybean plants (variety S20-G7)—grown in controlled environment plant growth chambers. All chemicals were applied using an emulsifiable concentrate (EC) formulation that was diluted with water containing additional surfactant (EXTRAVON 1 g/20 L) to the indicated concentrations. Plant WU was assessed by multiple pot weighing processes before and after application of the chemicals at the indicated times (expressed in days after application (DAA)). The WU data before application was used to correct for differences in water use due to non-treatment effects (e.g. due to differences in plant size). The results are expressed compared to negative control treatment (water with EXTRAVON 1 g/20 L).
Application of the chemicals (0 DAA) takes place approximately between 8 to 9:30 a.m. […] The cumulative total WU (0-2 DAA) is calculated by summing the WU data mentioned above.

PYR1-HAB1 = PYR1-HAB1 (Arabidopsis thaliana (Mouse-ear cress), UniProt O49686); test: PP2C activity assay, PYR1-HAB1; format: biochemical; conditions: 100 nM PP2C, 200 nM PYR/PYL protein, 4-nitrophenyl phosphate substrate; read-out: IC50 of inhibition of PYR1-HAB1
PYR1-HAB1, sequence (O49686 whole entry, looked up): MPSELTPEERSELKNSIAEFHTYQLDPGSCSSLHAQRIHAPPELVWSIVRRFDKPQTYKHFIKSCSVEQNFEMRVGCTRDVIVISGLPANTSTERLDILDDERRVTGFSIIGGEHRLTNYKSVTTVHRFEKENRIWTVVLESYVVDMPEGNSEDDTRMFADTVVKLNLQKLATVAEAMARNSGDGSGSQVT
PYR1-HAB1, sequence (Q9CAJ0 whole entry partner, looked up): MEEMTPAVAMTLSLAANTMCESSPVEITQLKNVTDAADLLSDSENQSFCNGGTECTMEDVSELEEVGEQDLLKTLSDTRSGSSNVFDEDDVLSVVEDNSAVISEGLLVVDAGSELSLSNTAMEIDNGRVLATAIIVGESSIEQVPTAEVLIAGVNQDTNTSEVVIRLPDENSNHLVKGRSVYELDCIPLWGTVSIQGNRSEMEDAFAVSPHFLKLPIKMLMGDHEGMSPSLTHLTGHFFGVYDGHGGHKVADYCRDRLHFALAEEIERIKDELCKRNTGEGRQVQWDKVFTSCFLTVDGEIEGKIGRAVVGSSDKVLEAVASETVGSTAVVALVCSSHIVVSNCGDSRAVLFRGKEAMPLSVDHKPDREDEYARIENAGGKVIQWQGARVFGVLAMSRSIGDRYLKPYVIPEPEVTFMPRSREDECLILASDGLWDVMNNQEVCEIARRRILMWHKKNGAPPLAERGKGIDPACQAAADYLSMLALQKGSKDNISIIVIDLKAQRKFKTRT
Description: (§1) The protein HAB1, a type 2 protein phosphatase (PP2C), is inhibited by PYR/PYL proteins in dependence of abscisic acid or other receptor agonists. The potency of a receptor agonists correlates with the level of inhibition of the PP2C, and therefore the IC50 (PYR1-HAB1) can be used to compare the relative activity of different chemical analogues. Since inhibition of PP2C correlates to inhibition of seed-germination and increase in plant water-use efficiency, it serves as a powerful tool to quantify biological potential of a chemical acting as an analogue of abscisic acid.
(§2) HAB1 and PYL proteins were expressed and purified as described in Park et al. ((2009) Science 324(5930):1068-1071), with minor modifications. To obtain GST-HAB1, the HAB1 cDNA was cloned into pGex-2T. Expression was conducted in BL21[DE3]pLysS host cells. Transformed cells were pre-cultured overnight, transferred to LB medium and cultured at 30° C. to culture A600 of ˜0.5.
(§3) The culture was then cooled on ice and MnCl2 added to 4 mM and IPTG added to 0.3 mM. After 16 hours incubation at 15° C., cells were harvested and recombinant proteins were purified on glutathione agarose as described in Park et al. To obtain 6×His-PYL receptor fusion proteins, expression constructs previously described by Okamoto et al. 2013, (PNAS 110(29): 12132-12137) were used. ABA receptors were expressed and purified as described above.
(§4) For the values shown in Table B5, PP2C activity assays using recombinant receptors and PP2Cs were carried out as follows: purified proteins were pre-incubated in 160 μl assay buffer containing 100 mM Tris-HCl-pH7.9, 100 mM NaCl, 3 μg bovine serum albumin, 0.1% 2-mercaptoethanol, 1 mM MnCl2 with ABA or agonists (compounds of the present invention) for 30 minutes at room temperature. Reactions were started by adding 40 μL of a reaction solution containing 25 mM 4-nitrophenyl phosphate in assay buffer after which absorbance measurements were immediately collected using a 405 nm on Wallac plate reader. Reactions contained 100 nM PP2C and 200 nM PYR/PYL proteins. […] For inferring IC50 values, calculations from receptor/PP2C assays containing different concentrations (ranging from 1 μM to 4 nM) were. The obtained dose response data was fit to a log (inhibitor) versus response-(variable slope) model using non-linear regression to infer the IC50s, using Graph Pad Prism 6.0.

PYL2-HAB1 = PYL2-HAB1 (Arabidopsis thaliana (Mouse-ear cress), UniProt O80992); test: PP2C activity assay, PYL2-HAB1; format: biochemical; conditions: 100 nM PP2C, 200 nM PYR/PYL protein, 4-nitrophenyl phosphate substrate; read-out: IC50 of inhibition of PYL2-HAB1
PYL2-HAB1, sequence (O80992 whole entry, looked up): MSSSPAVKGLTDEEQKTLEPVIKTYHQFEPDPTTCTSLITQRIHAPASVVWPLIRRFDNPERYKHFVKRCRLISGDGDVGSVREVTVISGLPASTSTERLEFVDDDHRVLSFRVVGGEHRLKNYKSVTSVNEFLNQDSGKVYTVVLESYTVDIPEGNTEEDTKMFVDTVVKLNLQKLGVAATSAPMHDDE
PYL2-HAB1, sequence (Q9CAJ0 whole entry partner, looked up): as the sequence (Q9CAJ0 whole entry partner, looked up) above
Description: as §1, §2, §3, §4

[2] = test system: corn plants (variety NK OCTET); test: Water use (WU) of corn plants after foliar spray; format: in vivo; conditions: foliar spray at 500 μM, vs negative control; for Total % WU 0 to 2 DAA: cumulative
Method: Compounds were tested for their effect on reducing plant water use as follows. The compounds were applied by foliar spray to 12 day old corn plants (variety NK OCTET) grown in controlled environment plant growth chambers. All compounds were applied using an emulsifiable concentrate (EC) formulation that was diluted to the desired concentrations with water containing 0.4% of the adjuvant rape seed methyl ester. Plant water use during the day was assessed by repeated weighing of the pots in which the plants were grown before and after application of the compounds at the indicated times (expressed in days after application (DAA)). The water use data before application was used to correct any differences in water use arising due to non-treatment effects (e.g. due to differences in plant size). The untransformed water use values were subjected to an analysis of covariance, fitting the effect of treatment and using the baseline water use 1 day before application as a covariate. Application of the chemicals (0 DAA) takes place approximately between 8 to 9:30 a.m. WU is measured within day time (chamber light is on 6:00 to 20:00) at these timepoints: 0 DAA AM (10:30-12:50) and 0 DAA PM (14:00-19:50), 1 DAA AM (7:30-12:50) and 1 DAA PM (14:00-19:50) and 2 DAA AM (7:30-12:50). The cumulative total WU (0-2 DAA) is calculated by summing the WU data mentioned above.

[3] = test system: corn plants (variety NK OCTET); test: Water use (WU) of corn plants after foliar spray; format: in vivo; conditions: foliar spray at 500 μM, vs negative control
[4] = 0 h, application rate 100 μM, read-out: % WU 0 DAA AM
[5] = 0 h, application rate 100 μM, read-out: % WU 0 DAA PM
[6] = 24 h, application rate 100 μM, read-out: % WU 1 DAA AM
[7] = 24 h, application rate 100 μM, read-out: % WU 1 DAA PM
[8] = 48 h, application rate 100 μM, read-out: % WU 2 DAA AM
[9] = repeated experiment (Table B2), rate not given

SMILES: CCCN1C(=O)CCc2cc(NS(=O)(=O)Cc3ccc(C)cc3)ccc21 [drawing 25, reference compound]
- change in vivo at 100 µM [1, 4]: -1.3%
- change in vivo at 100 µM [1, 5]: -0.7%
- change in vivo at 100 µM [1, 6]: -2.2%
- change in vivo at 100 µM [1, 7]: -0.2%
- change in vivo at 100 µM [1, 8]: -3.4%
- Total 0 to 2 DAA ([1]; application rate 100 μM): −2.0%

SMILES: CCCN1C(=O)CCc2cc(NS(=O)(=O)Cc3ccc(C)cc3)ccc21 [Quinabactin, quinabactin, reference compound]
- IC50 (PYR1-HAB1): 104 nM
- IC50 (PYL2-HAB1): 262 nM
- % WU 0 DAA AM [1, 9]: −22%
- % WU 0 DAA PM [1, 9]: −23%
- % WU 1 DAA AM [1, 9]: −17%
- % WU 1 DAA PM [1, 9]: −15%
- % WU 2 DAA AM [1, 9]: −12%
- % WU 2 DAA PM [1, 9]: −11%
- Total % WU 0 to 2 DAA [1, 9]: −16%

SMILES: CCCN1C(=O)CCc2cc(NS(=O)(=O)Cc3ccc(C4CC(=O)C4(C)C)cc3)ccc21 (stereo not drawn) [Compound 8.004, 1-[4-(2,2-dimethyl-3-oxo-cyclobutyl)phenyl]-N-(2-oxo-1-propyl-3,4-dihydroquinolin-6-yl)methanesulfonamide]
- % WU 2 DAA PM [1, 9]: 1%
- Total % WU 0 to 2 DAA [1, 9]: −0.7%

SMILES: CCCN1C(=O)CCc2cc(NS(=O)(=O)Cc3ccc(C4CC4)cc3)ccc21 [Compound 1.004, 1-(4-cyclopropylphenyl)-N-(2-oxo-1-propyl-3,4-dihydroquinolin-6-yl)methanesulfonamide]
- IC50 (PYR1-HAB1): 51 nM
- Total % WU 0 to 2 DAA [2]: −11.8%
- % WU 0 DAA AM [2]: −17.9%
- % WU 0 DAA PM [2]: −12.4%
- % WU 1 DAA AM [2]: −12.4%
- % WU 1 DAA PM [2]: −12.1%
- % WU 2 DAA AM [2]: −9.8%
- % WU 2 DAA PM [3]: −10.2%
- IC50 (PYL2-HAB1): 177 nM
- % WU 2 DAA PM [1, 9]: −12.9%
- Total % WU 0 to 2 DAA [1, 9]: −25%

SMILES: CCN1C(=O)CC(C)c2cc(NS(=O)(=O)Cc3ccc(C4CC4)cc3)ccc21 (stereo not drawn) [Compound 1.178, 1-(4-cyclopropylphenyl)-N-(1-ethyl-4-methyl-2-oxo-3,4-dihydroquinolin-6-yl)methanesulfonamide]
- Total % WU 0 to 2 DAA [2]: −9.7%
- % WU 0 DAA AM [2]: −18.5%
- % WU 0 DAA PM [2]: −13%
- % WU 1 DAA AM [2]: −11.2%
- % WU 1 DAA PM [2]: −9.2%
- % WU 2 DAA AM [2]: −6.5%
- % WU 2 DAA PM [3]: −5.8%
- % WU 2 DAA PM [1, 9]: −36.5%
- Total % WU 0 to 2 DAA [1, 9]: −45.4%

SMILES: CCN1C(=O)CC(C)c2cc(NS(=O)(=O)Cc3ccc(C4CC4)cc3)cc(F)c21 (stereo not drawn) [Compound 1.220, 1-(4-cyclopropylphenyl)-N-(1-ethyl-8-fluoro-4-methyl-2-oxo-3,4-dihydroquinolin-6-yl)methanesulfonamide]
- IC50 (PYR1-HAB1): 71 nM
- Total % WU 0 to 2 DAA [2]: −17.8%
- % WU 0 DAA AM [2]: −32.6%
- % WU 0 DAA PM [2]: −35.1%
- % WU 1 DAA AM [2]: −18.2%
- % WU 1 DAA PM [2]: −14.1%
- % WU 2 DAA AM [2]: −8.7%
- % WU 2 DAA PM [3]: −9%
- IC50 (PYL2-HAB1): 16 nM
- % WU 2 DAA PM [1, 9]: −44.6%
- Total % WU 0 to 2 DAA [1, 9]: −50.5%

SMILES: CCCN1C(=O)CCc2cc(NS(=O)(=O)Cc3ccc(C4CCCC4)cc3)ccc21 [Compound 9.004, 1-(4-cyclopentylphenyl)-N-(2-oxo-1-propyl-3,4-dihydroquinolin-6-yl)methanesulfonamide]
- IC50 (PYR1-HAB1): 97 nM
- IC50 (PYL2-HAB1): > 1000 nM
- % WU 2 DAA PM [1, 9]: 0.5%
- Total % WU 0 to 2 DAA [1, 9]: −1.4%

SMILES: CCCN1C(=O)CCc2cc(NS(=O)(=O)Cc3ccc(C4CC4)cc3)cc(F)c21 [Compound 1.214, 1-(4-cyclopropylphenyl)-N-(8-fluoro-2-oxo-1-propyl-3,4-dihydroquinolin-6-yl)methanesulfonamide]
- IC50 (PYR1-HAB1): 28 nM
- IC50 (PYL2-HAB1): 130 nM

SMILES: CCCN1C(=O)CCc2cc(NS(=O)(=O)Cc3ccc(C4CCC4)cc3)ccc21 [Compound 5.004, 1-(4-cyclobutylphenyl)-N-(2-oxo-1-propyl-3,4-dihydroquinolin-6-yl)methanesulfonamide]
- Total % WU 0 to 2 DAA [2]: −4.9%
- % WU 0 DAA AM [2]: −8.9%
- % WU 0 DAA PM [2]: −8.8%
- % WU 1 DAA AM [2]: −5.6%
- % WU 1 DAA PM [2]: −5.9%
- % WU 2 DAA AM [2]: −1.7%
- % WU 2 DAA PM [3]: −2.3%
- % WU 2 DAA PM [1, 9]: 3.9%
- Total % WU 0 to 2 DAA [1, 9]: −3%

SMILES: CCCN1C(=O)CCc2cc(NS(=O)(=O)Cc3ccc(C4CC4)cc3)ccc21 [drawing 27]
- change in vivo at 500 µM ([1]; 0 h, application rate 500 μM, read-out: % WU 0 DAA AM): -8.8%
- change in vivo at 500 µM ([1]; 0 h, application rate 500 μM, read-out: % WU 0 DAA PM): -10.7%
- change in vivo at 500 µM ([1]; 24 h, application rate 500 μM, read-out: % WU 1 DAA AM): -9.4%
- change in vivo at 500 µM ([1]; 24 h, application rate 500 μM, read-out: % WU 1 DAA PM): -6.4%
- change in vivo at 500 µM ([1]; 48 h, application rate 500 μM, read-out: % WU 2 DAA AM): -6.1%
- Total 0 to 2 DAA ([1]; application rate 500 μM): −8.9%

SMILES: CCCN1C(=O)CCc2cc(NS(=O)(=O)Cc3ccc(C4CC4)cc3)cc(Cl)c21 [Compound 1.025, N-(8-chloro-2-oxo-1-propyl-3,4-dihydroquinolin-6-yl)-1-(4-cyclopropylphenyl)methanesulfonamide]
- IC50 (PYR1-HAB1): 83 nM
- IC50 (PYL2-HAB1): 114 nM
- % WU 2 DAA PM [1, 9]: −13.6%
- Total % WU 0 to 2 DAA [1, 9]: −22.1%

SMILES: CCCN1C(=O)CC(C)c2cc(NS(=O)(=O)Cc3ccc(C4CC4)cc3)ccc21 (stereo not drawn) [Compound 1.179]
- IC50 (PYR1-HAB1): 82 nM
- IC50 (PYL2-HAB1): 64 nM

SMILES: CCCN1C(=O)CCc2cc(NS(=O)(=O)Cc3ccc(C4CC4)cc3)ccc21 [drawing 26]
- change in vivo at 100 µM [1, 4]: -0.8%
- change in vivo at 100 µM [1, 5]: -3.8%
- change in vivo at 100 µM [1, 6]: -3%
- change in vivo at 100 µM [1, 7]: -2.8%
- change in vivo at 100 µM [1, 8]: -5.2%
- Total 0 to 2 DAA ([1]; application rate 100 μM): −3.8%
